Read-outs that look alike come from different tables or passages of the source. Marks after values point to notes of the source that are not given here.
Legend:
[1] = tested on: C. albicans ATCC MYA-2876(S); settings: Table 1; strain C; control azoles; previously reported (refs 5, 16); cited from earlier work
[2] = tested on: Candida parapsilosis ATCC 22019; settings: Table 1; strain J; control azoles; previously reported (refs 5, 16); cited from earlier work
[3] = tested on: Aspergillus flavus ATCC MYA-3631; settings: Table 1; strain K; control azoles; previously reported (refs 5, 16); cited from earlier work
[4] = tested on: C. albicans ATCC MYA-1003(R); settings: Table 1; strain G; control azoles; previously reported (refs 5, 16); cited from earlier work
Candida krusei ATCC 6258 [5] = settings: Table 1; strain I; control azoles; previously reported (refs 5, 16); cited from earlier work
[6] = tested on: C. albicans ATCC MYA-2310(S); settings: Table 1; strain E; control azoles; previously reported (refs 5, 16); cited from earlier work
[7] = tested on: C. albicans ATCC 90819(R); settings: Table 1; strain D; control azoles; previously reported (refs 5, 16); cited from earlier work
[8] = tested on: C. albicans ATCC MYA-1237(R); settings: Table 1; strain F; control azoles; previously reported (refs 5, 16); cited from earlier work
[9] = tested on: Aspergillus terreus ATCC MYA-3633; settings: Table 1; strain M; control azoles; previously reported (refs 5, 16); cited from earlier work
[10] = tested on: Candida glabrata ATCC 2001; settings: Table 1; strain H; control azoles; previously reported (refs 5, 16); cited from earlier work
[11] = tested on: Aspergillus nidulans ATCC 38163; settings: Table 1; strain L; control azoles; previously reported (refs 5, 16); cited from earlier work
C. albicans ATCC 64124 [12] = settings: Table 1; strain B; control azoles; previously reported (refs 5, 16); cited from earlier work
[13] = tested on: Candida albicans ATCC 10231; settings: Table 1; strain A; control azoles FLC, ITC, POS, VOR; previously reported (refs 5, 16); cited from earlier work
[14] = tested on: C. albicans ATCC 90819(R); experiment: MIC determination, strain D; assay type: cell-based, Candida albicans; settings: Candida albicans, ATCC90819
Protocol: (§1) The antifungal activity of our new azole compounds 1-9 and 24-41 was first evaluated against a panel of seven Candida albicans strains (A-G), three non-albicans Candida strains […], and three Aspergillus strains (K-M) in a concentration range of 0.03-31.2 μg/mL (Table 1). […] For all of our azole derivatives we report their MIC-0 values against C. albicans ATCC 10231 (strain A) and all Aspergillus strains (K-M), which correspond to complete growth inhibition of these fungi. […] The commercially available antifungals AmB, FLC, ITC, POS, and VOR were used as reference drugs for comparison. The MIC values presented for these five control drugs were either tested herein or correspond to our previously published data^5, 16 as indicated in Table 1.
(§2) Antifungal activity in the absence or presence of serum. The antifungal activity of the newly prepared alkylated piperazine/morpholine-azole hybrids 16-28, of intermediate 14 that we used to verify that only final compounds exert antifungal activity, as well as that of alkylated piperazine/morpholine derivatives 1-10 were first evaluated against a panel of seven C. albicans (ATCC 10231 (A), ATCC 64124(R) (B), ATCC MYA-2876(S) (C), ATCC 90819(R) (D), ATCC MYA-2310(S) (E), ATCC MYA-1237(R) (F), and ATCC MYA-1003(R) (G)), three non-albicans Candida (C. glabrata ATCC 2001 (H), C. krusei ATCC 6258 (I), and C. parapsilosis ATCC 22019 (J)), and three Aspergillus (A. flavus ATCC MYA-3631 (K), A. nidulans ATCC 38163 (L), and A. terreus ATCC MYA-3633 (M)) strains using a concentration range of 0.03-31.3 μg/mL (Table 2).
(§3) Commercially available antifungal agents such as AmB, CAS, FLC, and VOR were used as positive controls for comparison. […] It is important to note that all comparisons to follow will be done by using the MIC values reported in μg/mL as the data were collected that way. However, we also present in parentheses in Table 2 the corresponding values in micromolar.
(§4) We used the commercially available antifungal agents such as AmB, caspofungin (CAS), FLC, and VOR as positive controls for comparison. For derivatives 5-16 as well as the reference drugs AmB and CAS, we reported MIC-0 values, which correspond to no visible growth. […] In this manuscript, we performed all activity comparisons by using the MIC values reported in μg/mL (Note: the corresponding MIC values are also provided in μM into parentheses in Tables 1, 2, S1, and S2).

Candida krusei ATCC 6258 [15] = experiment: MIC determination, strain I; assay type: cell-based; settings: Pichia kudriavzevii, ATCC6258
Protocol: as §1, §2, §3, §4

[16] = tested on: Candida glabrata ATCC 2001; experiment: MIC determination, strain H; assay type: cell-based; settings: Nakaseomyces glabratus, ATCC2001
Protocol: as §1, §2, §3, §4

[17] = tested on: ergosterol biosynthetic pathway (sterol 14α-demethylase) in C. albicans ATCC 10231 (strain A); experiment: Sterol composition by GC-MS, strain A; assay type: cell-based, Candida albicans
Text: (§5) FIG. 7A-FIG. 7H includes FIG. 7A. A simplified ergosterol biosynthetic pathway and products resulting from inhibition of ERG11. FIG. 7B-G. include GC-MS chromatograms of the sterols extracted from untreated and antifungals treated C. albicans strains. […] The peaks are for lanosterol (1), ergosterol (2), eburicol (3), 14-alpha-methyl ergosta 8,24(28)-dien-3-beta,6-alpha-diol (4), and unknown sterols (5 and 6). FIG. 7H is a table summarizing the percentage of each sterol from panels B-G.
FIG. 13A. A simplified ergosterol biosynthetic pathway and products resulting from inhibition of ERG11. FIG. 13B-FIG. 13F. GC-MS chromatograms of the sterols extracted from untreated and antifungal-treated C. albicans ATCC 10231 (strain A). […] The peaks in these chromatograms are for lanosterol (1), ergosterol (2), eburicol (3), 14α-methyl ergosta-8,24(28)-dien-3β,6α-diol (4), and three unknown sterols (5-7). FIG. 13G includes a table summarizing the percentage of each sterol from panels B-F.
(§6) No drug controls were also performed (FIGS. 7D and G).
Determination of sterol composition in c. albicans in the presence and absence of drugs. […] By using gas chromatography-mass spectrometry (GC-MS), we investigated the potential of the synthetic compounds to exert their antifungal activity by inhibiting the sterol 14α-demethylase enzyme of the ergosterol biosynthetic pathway (FIG. 13). […] A no drug control was also performed (FIG. 13A).
Since out of our compounds displaying antifungal activity only compound 8 caused membrane disruption of C. albicans ATCC 10231 (strain A) in the membrane permeabilization assay (section 2.6), we decided to explore by using gas chromatography-mass spectrometry (GC-MS) the effect of compounds 8 and 9 on sterol composition during ergosterol biosynthesis (the mechanism of action of other conventional azoles). […] We also used VOR at 0.12 μg/mL and no drug control for comparison.

C. albicans ATCC 64124 [18] = experiment: MIC determination, strain B; assay type: cell-based, Candida albicans; settings: Candida albicans, ATCC64124
Protocol: as §1, §2, §3, §4

[19] = tested on: ergosterol biosynthetic pathway (sterol 14α-demethylase) in C. albicans ATCC 64124 (strain B); experiment: Sterol composition by GC-MS, strain B; assay type: cell-based, Candida albicans; settings: Ex.1 series, 1.95 μg/mL
Text: as §5, §6

[20] = tested on: Candida parapsilosis ATCC 22019; experiment: MIC determination, strain J; assay type: cell-based; settings: Lodderomyces parapsilosis, ATCC22019
Protocol: as §1, §2, §3, §4

[21] = tested on: C. albicans ATCC MYA-2310(S); experiment: MIC determination, strain E; assay type: cell-based, Candida albicans; settings: Candida albicans
Protocol: as §1, §2, §3, §4

[22] = tested on: C. albicans ATCC MYA-2876(S); experiment: MIC determination, strain C; assay type: cell-based, Candida albicans; settings: Candida albicans
Protocol: as §1, §2, §3, §4

[23] = bulk form; cited from earlier work
[24] = read-out: MIC (MIC-2), in parentheses

SMILES: CCC(C)n1ncn(-c2ccc(N3CCN(c4ccc(OCC5COC(Cn6cncn6)(c6ccc(Cl)cc6Cl)O5)cc4)CC3)cc2)c1=O (stereo not drawn) [ITC, itraconazole]
- MIC (MIC-2) [1]: 7.8^b μg/mL
- MIC (MIC-2) [2]: 0.12^c μg/mL
- MIC (MIC-2) [3]: 0.48^c μg/mL
- MIC (MIC-2) [4]: 31.2^b μg/mL
- MIC (MIC-2) (Candida krusei ATCC 6258 [5]): 0.48^c μg/mL
- MIC (MIC-2) [6]: 31.2^b μg/mL
- MIC (MIC-2) [7]: 31.2^b μg/mL
- MIC (MIC-2) [8]: 31.2^b μg/mL
- MIC (MIC-2) [9]: 0.975^c μg/mL
- MIC (MIC-2) [10]: 7.8^c μg/mL
- MIC (MIC-2) [11]: 0.195^b μg/mL
- MIC (MIC-2) (C. albicans ATCC 64124 [12]): >62.5^b μg/mL
- MIC (MIC-2) [13]: 0.5^b μg/mL

SMILES: OC(Cn1cncn1)(Cn1cncn1)c1ccc(F)cc1F [FLC, fluconazole]
- MIC (MIC-2) [1]: 15.6^b μg/mL
- MIC ([14]; read-out: MIC (MIC-2)): > 125 µg/mL
- MIC [14, 24]: > 408 µM
- MIC (Candida krusei ATCC 6258 [15]; read-out: MIC (MIC-2)): > 31.3 µg/mL
- MIC (Candida krusei ATCC 6258 [15]; [24]): > 102 µM
- MIC (MIC-2) [2]: 1.95^c μg/mL
- MIC ([16]; read-out: MIC (MIC-2)): > 31.3 µg/mL
- MIC [16, 24]: > 102 µM
- ergosterol, percentage of sterols ([17]; Ex.1 series, 0.125 μg/mL): ~93%
- ergosterol (2), percentage of sterols ([17]; Ex.2 series, FLC 1.95, VOR 0.12, 20 0.48, 26 0.975 μg/mL): 95.90%
- MIC (MIC-2) (Candida krusei ATCC 6258 [5]): >31.2^c μg/mL
- MIC (C. albicans ATCC 64124 [18]; read-out: MIC (MIC-2)): > 125 µg/mL
- MIC (C. albicans ATCC 64124 [18]; [24]): > 408 µM
- eburicol, percentage of sterols [19]: ~12%
- ergosterol, percentage of sterols [19]: ~48%
- lanosterol, percentage of sterols [19]: ~30%
- MIC (MIC-2) [6]: >125^b μg/mL
- MIC ([20]; read-out: MIC (MIC-2)): 1.95 µg/mL
- MIC [20, 24]: 6.4 µM
- MIC ([21]; read-out: MIC (MIC-2)): > 125 µg/mL
- MIC [21, 24]: > 408 µM
- MIC (MIC-2) [10]: >31.2^c μg/mL
- MIC ([22]; read-out: MIC (MIC-2)): 15.6 µg/mL
- MIC [22, 24]: 50.9 µM
- solubility in organic solvents such as DMSO [23]: highly soluble
- solubility in water [23]: only slightly soluble

SMILES: CC[C@@H]([C@H](C)O)n1ncn(-c2ccc(N3CCN(c4ccc(OC[C@@H]5CO[C@@](Cn6cncn6)(c6ccc(F)cc6F)C5)cc4)CC3)cc2)c1=O [POS, posaconazole]
- MIC (MIC-2) [1]: 7.8^b μg/mL
- MIC (MIC-2) [2]: <0.03^c μg/mL
- MIC (MIC-2) [3]: 0.24^c μg/mL
- MIC (MIC-2) [4]: 15.6^b μg/mL
- MIC (MIC-2) (Candida krusei ATCC 6258 [5]): 0.06^c μg/mL
- MIC (MIC-2) [6]: 31.2^b μg/mL
- MIC (MIC-2) [8]: 15.6^b μg/mL
- MIC (MIC-2) [9]: 0.48^c μg/mL
- MIC (MIC-2) [10]: 0.12^c μg/mL
- MIC (MIC-2) [11]: 0.195^b μg/mL
- MIC (MIC-2) (C. albicans ATCC 64124 [12]): >62.5^b μg/mL
- MIC (MIC-2) [13]: 0.5^b μg/mL
